In patent publication US8163909B2, “Substituted hydroxyethyl amine compounds as beta-secretase modulators and methods of use” (Amgen Inc., priority 2007, dated 2012):
Where two headings read alike, the source gives them in different places.

Columns and labels:
[1] = target: Beta Secretase enzyme (BACE) (Homo sapiens, UniProt P56817); assay: In vitro enzymatic BACE FRET (fluorescence resonance energy transfer) assay; assay type: biochemical;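 note: fluorescence read after 1 h with 50 nM quenched peptide substrate spanning the BACE cleavage site, in pH 4.2 acetate buffer containing 10% DMSO and nonionic detergent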
[2] = system: Aβ40 in conditioned medium of cells stably expressing Amyloid Precursor Protein (APP); assay: In vitro BACE cell-based assay (Aβ40 in conditioned medium, sandwich ELISA);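 note: compounds added as a dilution series, secreted peptide quantified by europium time-resolved fluorescence readout, potency fitted from percent of control versus compound concentration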
[3] = BACE enzyme assay, read-out: BACE1 FRET assay (IC50)
[4] = BACE enzyme FRET assay, read-out: BACE1 FRET assay (IC50)
[5] = Homo sapiens, HEK293, HEK cells, cell-based assay, read-out: HEK cell assay (IC50)
[6] = Homo sapiens, HEK293, cell-based assay, HEK cells, IC50's in uM, read-out: HEK cell assay
[7] = Table 1, read-out: BACE1 FRET assay
[8] = Homo sapiens, HEK293, Table 1, HEK cells, read-out: HEK cell assay
[9] = Homo sapiens, HEK293, HEK cell-based assay, IC50's in uM, read-out: HEK cell assay

Beta Secretase enzyme (BACE), sequence (P56817 46-501): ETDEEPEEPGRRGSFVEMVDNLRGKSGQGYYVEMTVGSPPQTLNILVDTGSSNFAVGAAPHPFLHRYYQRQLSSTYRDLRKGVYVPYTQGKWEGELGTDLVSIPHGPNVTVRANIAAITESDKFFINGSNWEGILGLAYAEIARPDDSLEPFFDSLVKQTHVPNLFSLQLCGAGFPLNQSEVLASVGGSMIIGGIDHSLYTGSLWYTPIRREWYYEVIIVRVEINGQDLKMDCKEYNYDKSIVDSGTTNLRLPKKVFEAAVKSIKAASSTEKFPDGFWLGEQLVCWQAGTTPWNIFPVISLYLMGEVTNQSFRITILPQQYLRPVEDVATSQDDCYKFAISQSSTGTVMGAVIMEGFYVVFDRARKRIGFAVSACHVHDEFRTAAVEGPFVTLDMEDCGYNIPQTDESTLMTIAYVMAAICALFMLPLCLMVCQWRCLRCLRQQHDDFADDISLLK

Compound	IC50 [1, 3]	IC50 [2, 5]	also measured
1-cyclobutyl-N-((1S,2R)-3-(((4′S)-6′-(2,2-dimethylpropyl)-3′,4′-dihydrospiro[cyclobutane-1,2′-pyrano[2,3-b]pyridin]-4′-yl)amino)-1-((4-fluorophenyl)methyl)-2-hydroxypropyl)-5-oxo-3-pyrrolidinecarboxamide [compound 67]	0.471 µM	–	IC50 ([2]; HEK cells, cell-based assay, read-out: HEK cell assay (IC50)): 0.0625 µM
COCC(=O)N[C@@H](Cc1ccc2c(c1)OCO2)[C@H](O)CN[C@H]1CC2(CCC2)Oc2ncc(CC(C)(C)C)cc21 [compound 282]	–	0.0168 µM	IC50 [1, 4]: 0.00613 µM
CO[C@H](C)C(=O)N[C@@H](Cc1ccc2c(c1)OCO2)[C@H](O)CN[C@H]1CC2(CCC2)Oc2ncc(CC(C)(C)CF)cc21 [compound 190]	–	0.0432 µM	IC50 [1, 4]: 0.0238 µM
C#Cc1cccc(C[C@H](NC(=O)COC)[C@H](O)CN[C@H]2CC3(CCC3)Oc3ncc(CC(C)(C)C)cc32)c1F [compound 911]	–	–	IC50 [2, 6]: 0.144 µM
CC(C)(C)Cc1cnc2c(c1)[C@@H](NC[C@@H](O)[C@H](Cc1cc(F)cc(F)c1)NC(=O)C(C)(Cl)Cl)CC1(CCC1)O2 [compound 97]	0.0138 µM	0.385 µM	–
COCC(=O)N[C@@H](Cc1ccc2c(c1)OCO2)[C@H](O)CN[C@H]1CC2(CCC2)Oc2ncc(CC(C)(C)C#N)cc21 [compound 87]	0.117 µM	0.0828 µM	–
CO[C@H](C)C(=O)N[C@@H](Cc1ccc2c(c1)OCO2)[C@H](O)CN[C@H]1CC2(CCC2)Oc2c1cc(CC(C)(C)C)nc2Cl [compound 131]	0.0268 µM	0.376 µM	–
COCC(=O)N[C@@H](Cc1cccc(F)c1)[C@H](O)CN[C@H]1CC2(CCC2)Oc2ncc(CC3(C(F)(F)F)CC3)cc21 [compound 327]	–	–	IC50 [1, 7]: 0.00985 µM; IC50 [2, 8]: 0.0604 µM
CC(=O)Nc1cnc2c(c1)[C@@H](NC[C@@H](O)[C@H](Cc1ccc(F)cc1)NC(C)=O)CC1(CCC1)O2 [compound 83, N-((1S,2R)-3-(((4′S)-6′-(acetylamino)-3′,4′-dihydrospiro[cyclobutane-1,2′-pyrano[2,3-b]pyridin]-4′-yl)amino)-1-((4-fluorophenyl)methyl)-2-hydroxypropyl)acetamide]	0.593 µM	> 10 µM	–
CO[C@H](C)C(=O)N[C@@H](Cc1ccc2c(c1)OCO2)[C@H](O)CN[C@H]1CC2(CCC2)Oc2c1cc(CC(C)(C)C)nc2N(C)C [compound 135]	0.0647 µM	0.175 µM	–
COCC(=O)N[C@@H](Cc1ccc(F)cc1)[C@H](O)CN[C@H]1CC2(CCC2)Oc2ncc(CC(C)C)cc21 [compound 332]	–	–	IC50 [1, 7]: 0.0109 µM; IC50 [2, 8]: 0.0189 µM
COCC(=O)N[C@@H](Cc1ccc2c(c1)OCO2)[C@H](O)CN[C@H]1CC2(CCC2)Oc2ncc([C@H](F)C(C)(C)C)cc21 [compound 183]	0.00863 µM	0.0178 µM	–
CC(=O)N[C@@H](Cc1ccc(F)cc1)[C@H](O)CN[C@H]1C[C@]2(CC[C@@H]2O)Oc2ncc(CC(C)(C)C)cc21 [compound 117]	0.00785 µM	0.0336 µM	–
COC(C)C(=O)NC(Cc1ccc2c(c1)OCO2)C(O)CNC1CC2(CC(C)C2)Oc2ncc(CC(C)(C)C)cc21 [compound 239, (2R)—N-((1S,2R)-1-(1,3-benzodioxol-5-ylmethyl)-3-(((1s,3R,4′S)-6′-(2,2-dimethylpropyl)-3-methyl-3′,4′-dihydrospiro[cyclobutane-1,2′-pyrano[2,3-b]pyridin]-4′-yl)amino)-2-hydroxypropyl)-2-(methyloxy)propanamide]	–	0.0346 µM	IC50 [1, 4]: 0.0178 µM
COCC(=O)N[C@@H](Cc1ccc(F)cc1)[C@H](O)CN[C@H]1CC2(CCC2)Oc2ncc(CC3(C(F)(F)F)CC3)cc21 [compound 311]	–	0.307 µM	IC50 [1, 4]: 0.0515 µM
COCC(=O)N[C@@H](Cc1cccc(F)c1)[C@H](O)CN[C@H]1CC2(CCC2)Oc2c1cc(CC(C)(C)C)nc2NCC(F)(F)F [compound 143]	0.0195 µM	0.314 µM	–
CC(=O)N[C@@H](Cc1ccc(F)cc1)[C@H](O)CN[C@H]1CC2(CCC2)Oc2ccc(CC(C)(C)C#N)cc21 [compound 161]	0.0112 µM	0.0174 µM	–
CC(=O)N[C@@H](Cc1cccc(F)c1)[C@H](O)CN[C@H]1CC2(CCC2)Oc2ncc(CC(C)(C)C(F)F)cc21 [compound 217]	–	0.00298 µM	IC50 [1, 4]: 0.00292 µM
COCC(=O)N[C@@H](Cc1ccc2c(c1)OCO2)[C@H](O)CN[C@H]1CC2(CCC2)Cc2ncc(CC(C)(C)C)cc21 [compound 168]	0.149 µM	0.211 µM	–
COCC(=O)N[C@@H](Cc1cc(Br)cc(OC)c1)[C@H](O)CN[C@H]1CC2(CCC2)Oc2ncc(CC(C)(C)C)cc21 [compound 917]	–	–	IC50 ([1]; BACE enzyme assay, IC50's in uM, read-out: BACE1 FRET assay): 0.014 µM
CC(=O)N[C@@H](Cc1cccc(F)c1)[C@H](O)CN[C@H]1CC2(CCC2)Oc2ncc([C@@H](F)[C@H](C)C(F)(F)F)cc21 [compound 323]	–	–	IC50 [1, 7]: 0.365 µM
COC(C)C(=O)NC(Cc1ccc2c(c1)OCO2)C(O)CNC1CC2(CC(O)C2)Oc2cnccc21 [compound 245, (2R)—N-((1S,2R)-1-(1,3-benzodioxol-5-ylmethyl)-2-hydroxy-3-(((1r,3R,4′S)-3-hydroxy-3′,4′-dihydrospiro[cyclobutane-1,2′-pyrano[2,3-c]pyridin]-4′-yl)amino)propyl)-2-(methyloxy)propanamide]	–	–	IC50 [1, 4]: 40 µM
CCO[C@@H](C)C(=O)N[C@@H](Cc1cccc(-c2nccs2)c1)[C@H](O)CN[C@H]1CC2(CCC2)Oc2ncc(CC(C)(C)C)cc21 [Example 893]	–	–	IC50 [2, 6]: 0.012 µM
CCO[C@H](C)C(=O)N[C@@H](Cc1cccc(-c2nccs2)c1)[C@H](O)CN[C@H]1CC2(CCC2)Oc2ncc(CC(C)(C)C)cc21 [Example 894]	–	–	IC50 [2, 6]: 0.018 µM
COCC(=O)N[C@@H](Cc1cccc(-c2nc(C)cs2)c1)[C@H](O)CN[C@H]1CC2(CCC2)Oc2ncc(CC(C)(C)C)cc21 [compound 758]	–	–	IC50 [2, 9]: 0.014 µM
COCC(=O)N[C@@H](Cc1cccc(-c2ccccn2)c1)[C@H](O)CN[C@H]1CC2(CCC2)Oc2ncc(CC(C)(C)C)cc21 [compound 841, N-((1S,2R)-3-(((4′S)-6′-(2,2-dimethylpropyl)-3′,4′-dihydrospiro[cyclobutane-1,2′-pyrano[2,3-b]pyridin]-4′-yl)amino)-2-hydroxy-1-(3-(2-pyridinyl)benzyl)propyl)-2-methoxyacetamide]	–	–	IC50 [2, 9]: 0.018 µM
COCC(=O)N[C@@H](Cc1ccc(F)cc1)[C@H](O)CN[C@H]1C[C@]2(C[C@@H](C#N)C2)Oc2ncc(CC(C)(C)C)cc21 [compound 261, N-((1S,2R)-3-(((1r,3S,4′S)-3-cyano-6′-(2,2-dimethylpropyl)-3′,4′-dihydrospiro[cyclobutane-1,2′-pyrano[2,3-b]pyridin]-4′-yl)amino)-1-((4-fluorophenyl)methyl)-2-hydroxypropyl)-2-(methyloxy)acetamide]	–	–	IC50 [1, 4]: 0.0389 µM
C#Cc1ccc(C[C@H](NC(=O)COC)[C@H](O)CN[C@H]2CC3(CCC3)Oc3ncc(CC(C)(C)C)cc32)cc1 [Example 885]	–	–	IC50 [2, 6]: 0.099 µM
CC(=O)NC(Cc1ccc(F)cc1)C(O)CNC1CC2(CC(C#N)C2)Oc2ncc(CC(C)(C)C)cc21 [compound 262, N-((1S,2R)-3-(((1r,3S,4′S)-3-cyano-6′-(2,2-dimethylpropyl)-3′,4′-dihydrospiro[cyclobutane-1,2′-pyrano[2,3-b]pyridin]-4′-yl)amino)-1-((4-fluorophenyl)methyl)-2-hydroxypropyl)acetamide]	–	–	IC50 [1, 4]: 0.0465 µM
COCC(=O)N[C@@H](Cc1cccc(-c2nccs2)c1F)[C@H](O)CN[C@H]1CC2(CCC2)Oc2ncc(CC(C)(C)C)cc21 [compound 908]	–	–	IC50 [2, 6]: 0.1 µM
